Assay results published in ChEMBL document CHEMBL1201862, “PubChem BioAssay data set” (2004).
Where a name gives a salt, the structure may show the parent alone.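 Tested at 5 concentrations; 48 h exposure; 96-well plates; endpoints linearly interpolated, else capped at highest concentration. Abbreviation: GI50, concentration required for 50% inhibition of growth.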 Activity calls are given as the source filed them. Rule as the data show it: active = GI50 up to about 1.1 µM and inactive = higher.

Columns and labels:
Experiment in all cases: NCI tumour cell line growth inhibition, 48 h
SR = tested on: SR
LOX IMVI = tested on: LOX IMVI
RPMI-8226 = tested on: RPMI-8226
MOLT-4 = tested on: MOLT-4
BT-549 = tested on: BT-549
CCRF-CEM = tested on: CCRF-CEM
MDA-N = tested on: MDA-N
NCI-H522 = tested on: NCI-H522
TK-10 = tested on: TK-10
UACC-257 = tested on: UACC-257
OVCAR-5 = tested on: OVCAR-5
HCT-116 = tested on: HCT-116
SK-MEL-28 = tested on: SK-MEL-28
UACC-62 = tested on: UACC-62
HT-29 = tested on: HT-29
Malme-3M = tested on: Malme-3M
SN12C = tested on: SN12C
PC-3 = tested on: PC-3
SF-268 = tested on: SF-268
Hs-578T = tested on: Hs-578T
IGROV-1 = tested on: IGROV-1
OVCAR-8 = tested on: OVCAR-8
SNB-75 = tested on: SNB-75
T47D = tested on: T47D
A549 = tested on: A549
SF-539 = tested on: SF-539
UO-31 = tested on: UO-31
DU-145 = tested on: DU-145
SK-MEL-2 = tested on: SK-MEL-2
NCI-H226 = tested on: NCI-H226
HOP-62 = tested on: HOP-62
HOP-92 = tested on: HOP-92
MDA-MB-231 = tested on: MDA-MB-231
ACHN = tested on: ACHN
MDA-MB-435 = tested on: MDA-MB-435
K562 = tested on: K562
EKVX = tested on: EKVX
HCC 2998 = tested on: HCC 2998
MCF7 = tested on: MCF7
M14 = tested on: M14
SF-295 = tested on: SF-295
CAKI-1 = tested on: CAKI-1
NCI-H23 = tested on: NCI-H23
OVCAR-3 = tested on: OVCAR-3
RXF 393 = tested on: RXF 393
OVCAR-4 = tested on: OVCAR-4
NCI/ADR-RES = tested on: NCI/ADR-RES
SK-MEL-5 = tested on: SK-MEL-5
KM12 = tested on: KM12
SNB-19 = tested on: SNB-19
SK-OV-3 = tested on: SK-OV-3
COLO 205 = tested on: COLO 205
NCI-H460 = tested on: NCI-H460
U-251 = tested on: U-251
SW-620 = tested on: SW-620
HL-60 = tested on: HL-60
HCT-15 = tested on: HCT-15
786-0 = tested on: 786-0
A498 = tested on: A498

O=S1(=O)C[C@@H](NCc2ccccc2)[C@H](NCc2ccccc2)C1
GI50 (SR): > 100 µM (inactive)
GI50 (LOX IMVI): > 100 µM (inactive)
GI50 (RPMI-8226): > 100 µM (inactive)
GI50 (MOLT-4): > 100 µM (inactive)
GI50 (BT-549): > 100 µM (inactive)
GI50 (CCRF-CEM): > 100 µM (inactive)
GI50 (MDA-N): > 100 µM (inactive)
GI50 (NCI-H522): 73.6 µM (inactive)
GI50 (TK-10): > 100 µM (inactive)
GI50 (UACC-257): > 100 µM (inactive)
GI50 (OVCAR-5): > 100 µM (inactive)
GI50 (HCT-116): > 100 µM (inactive)
GI50 (SK-MEL-28): > 100 µM (inactive)
GI50 (UACC-62): > 100 µM (inactive)
GI50 (HT-29): > 100 µM (inactive)
GI50 (Malme-3M): > 100 µM (inactive)
GI50 (SN12C): > 100 µM (inactive)
GI50 (PC-3): > 100 µM (inactive)
GI50 (SF-268): > 100 µM (inactive)
GI50 (Hs-578T): > 100 µM (inactive)
GI50 (IGROV-1): 26.2 µM (inactive)
GI50 (OVCAR-8): > 100 µM (inactive)
GI50 (SNB-75): > 100 µM (inactive)
GI50 (T47D): > 100 µM (inactive)
GI50 (A549): > 100 µM (inactive)
GI50 (SF-539): > 100 µM (inactive)
GI50 (UO-31): > 100 µM (inactive)
GI50 (DU-145): > 100 µM (inactive)
GI50 (SK-MEL-2): > 100 µM (inactive)
GI50 (NCI-H226): > 100 µM (inactive)
GI50 (HOP-62): 37.4 µM (inactive)
GI50 (HOP-92): > 100 µM (inactive)
GI50 (MDA-MB-231): > 100 µM (inactive)
GI50 (ACHN): > 100 µM (inactive)
GI50 (MDA-MB-435): > 100 µM (inactive)
GI50 (K562): > 100 µM (inactive)
GI50 (EKVX): > 100 µM (inactive)
GI50 (HCC 2998): > 100 µM (inactive)
GI50 (MCF7): > 100 µM (inactive)
GI50 (M14): 53.5 µM (inactive)
GI50 (SF-295): > 100 µM (inactive)
GI50 (CAKI-1): > 100 µM (inactive)
GI50 (NCI-H23): > 100 µM (inactive)
GI50 (OVCAR-3): > 100 µM (inactive)
GI50 (RXF 393): > 100 µM (inactive)
GI50 (OVCAR-4): > 100 µM (inactive)
GI50 (NCI/ADR-RES): > 100 µM (inactive)
GI50 (SK-MEL-5): > 100 µM (inactive)
GI50 (KM12): > 100 µM (inactive)
GI50 (SNB-19): > 100 µM (inactive)
GI50 (SK-OV-3): > 100 µM (inactive)
GI50 (COLO 205): > 100 µM (inactive)
GI50 (NCI-H460): > 100 µM (inactive)
GI50 (U-251): > 100 µM (inactive)
GI50 (SW-620): > 100 µM (inactive)

CCOc1cc(-c2nc3ccccn3c2/N=C/c2cc(Br)ccc2O)ccc1O
GI50 (SR): 35.6 µM (inactive)
GI50 (LOX IMVI): 23.2 µM (inactive)
GI50 (RPMI-8226): 26.5 µM (inactive)
GI50 (MOLT-4): 45.7 µM (inactive)
GI50 (HL-60): 15 µM (inactive)
GI50 (BT-549): 29.6 µM (inactive)
GI50 (CCRF-CEM): > 100 µM (inactive)
GI50 (MDA-N): 46.1 µM (inactive)
GI50 (NCI-H522): 35.9 µM (inactive)
GI50 (TK-10): 21.1 µM (inactive)
GI50 (UACC-257): 18.1 µM (inactive)
GI50 (OVCAR-5): 73.5 µM (inactive)
GI50 (HCT-116): 30.8 µM (inactive)
GI50 (SK-MEL-28): > 100 µM (inactive)
GI50 (UACC-62): 23.9 µM (inactive)
GI50 (HT-29): 42.1 µM (inactive)
GI50 (Malme-3M): 41.1 µM (inactive)
GI50 (HCT-15): 8.51 µM
GI50 (SN12C): 31.3 µM (inactive)
GI50 (PC-3): 18.8 µM (inactive)
GI50 (SF-268): 19.1 µM (inactive)
GI50 (Hs-578T): 61.4 µM (inactive)
GI50 (IGROV-1): 20.6 µM (inactive)
GI50 (OVCAR-8): 21.2 µM (inactive)
GI50 (SNB-75): 5.62 µM (inactive)
GI50 (T47D): 2.37 µM (inactive)
GI50 (A549): 37.9 µM (inactive)
GI50 (SF-539): 29.6 µM (inactive)
GI50 (UO-31): 27 µM (inactive)
GI50 (DU-145): 12.5 µM (inactive)
GI50 (SK-MEL-2): 46.1 µM (inactive)
GI50 (NCI-H226): 93.3 µM (inactive)
GI50 (HOP-62): 20.3 µM (inactive)
GI50 (HOP-92): 21.1 µM (inactive)
GI50 (MDA-MB-231): 30.5 µM (inactive)
GI50 (ACHN): 47.5 µM (inactive)
GI50 (MDA-MB-435): 66.8 µM (inactive)
GI50 (K562): 24.2 µM (inactive)
GI50 (786-0): 25.1 µM (inactive)
GI50 (EKVX): 23 µM (inactive)
GI50 (MCF7): 13.9 µM (inactive)
GI50 (M14): 36.1 µM (inactive)
GI50 (SF-295): 58.2 µM (inactive)
GI50 (CAKI-1): 67.1 µM (inactive)
GI50 (NCI-H23): 39.8 µM (inactive)
GI50 (OVCAR-3): 9.29 µM (inactive)
GI50 (RXF 393): 16 µM (inactive)
GI50 (OVCAR-4): 14.1 µM (inactive)
GI50 (NCI/ADR-RES): 27.7 µM (inactive)
GI50 (SK-MEL-5): 30.3 µM (inactive)
GI50 (SNB-19): 21.3 µM (inactive)
GI50 (SK-OV-3): 29.2 µM (inactive)
GI50 (A498): 31.6 µM (inactive)
GI50 (COLO 205): > 100 µM (inactive)
GI50 (NCI-H460): 58.3 µM (inactive)
GI50 (U-251): 17.5 µM (inactive)
GI50 (SW-620): 65 µM (inactive)

CN1[C@@H]2C[C@@H](OC(=O)[C@H](CO)c3ccccc3)C[C@H]1[C@@H]1O[C@@H]12 [SCOPOLAMINE HYDROBROMIDE]
GI50 (SR): > 100 µM (inactive)
GI50 (LOX IMVI): > 100 µM (inactive)
GI50 (RPMI-8226): > 100 µM (inactive)
GI50 (MOLT-4): > 100 µM (inactive)
GI50 (BT-549): > 100 µM (inactive)
GI50 (CCRF-CEM): > 100 µM (inactive)
GI50 (MDA-N): > 100 µM (inactive)
GI50 (NCI-H522): > 100 µM (inactive)
GI50 (TK-10): > 100 µM (inactive)
GI50 (UACC-257): > 100 µM (inactive)
GI50 (OVCAR-5): > 100 µM (inactive)
GI50 (HCT-116): > 100 µM (inactive)
GI50 (SK-MEL-28): > 100 µM (inactive)
GI50 (UACC-62): > 100 µM (inactive)
GI50 (HT-29): > 100 µM (inactive)
GI50 (Malme-3M): > 100 µM (inactive)
GI50 (HCT-15): > 100 µM
GI50 (SN12C): > 100 µM (inactive)
GI50 (PC-3): > 100 µM (inactive)
GI50 (Hs-578T): > 100 µM (inactive)
GI50 (IGROV-1): > 100 µM (inactive)
GI50 (OVCAR-8): > 100 µM (inactive)
GI50 (T47D): > 100 µM (inactive)
GI50 (A549): > 100 µM (inactive)
GI50 (UO-31): > 100 µM (inactive)
GI50 (DU-145): > 100 µM (inactive)
GI50 (SK-MEL-2): > 100 µM (inactive)
GI50 (NCI-H226): > 100 µM (inactive)
GI50 (HOP-62): > 100 µM (inactive)
GI50 (HOP-92): > 100 µM (inactive)
GI50 (MDA-MB-231): > 100 µM (inactive)
GI50 (ACHN): > 100 µM (inactive)
GI50 (MDA-MB-435): > 100 µM (inactive)
GI50 (K562): > 100 µM (inactive)
GI50 (786-0): > 100 µM (inactive)
GI50 (EKVX): > 100 µM (inactive)
GI50 (MCF7): > 100 µM (inactive)
GI50 (M14): > 100 µM (inactive)
GI50 (CAKI-1): > 100 µM (inactive)
GI50 (NCI-H23): > 100 µM (inactive)
GI50 (OVCAR-3): > 100 µM (inactive)
GI50 (RXF 393): > 100 µM (inactive)
GI50 (OVCAR-4): > 100 µM (inactive)
GI50 (NCI/ADR-RES): > 100 µM (inactive)
GI50 (SK-MEL-5): > 100 µM (inactive)
GI50 (KM12): > 100 µM (inactive)
GI50 (SK-OV-3): > 100 µM (inactive)
GI50 (A498): > 100 µM (inactive)
GI50 (COLO 205): > 100 µM (inactive)
GI50 (SW-620): > 100 µM (inactive)
